Paper PMC6934184, “Selective DNA-PKcs inhibition extends the therapeutic index of localized radiotherapy and chemotherapy” (The Journal of Clinical Investigation, 2019)

Biological target: T1, GRK5 (Homo sapiens, UniProt P34947)
T1 construct: purchased Thermo Fisher Scientific (Life Technologies) SelectScreen
Experiment: SelectScreen Z'LYTE
Format: biochemical
Procedure, shortened: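 Percent values come from Thermo SelectScreen profiling of NU5455, combining activity and binding assays. CSF1R was run in Z'LYTE format at Km app ATP, and CAMK1 in Adapta format with ATP listed at 10.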

T1 sequence (P34947 whole entry): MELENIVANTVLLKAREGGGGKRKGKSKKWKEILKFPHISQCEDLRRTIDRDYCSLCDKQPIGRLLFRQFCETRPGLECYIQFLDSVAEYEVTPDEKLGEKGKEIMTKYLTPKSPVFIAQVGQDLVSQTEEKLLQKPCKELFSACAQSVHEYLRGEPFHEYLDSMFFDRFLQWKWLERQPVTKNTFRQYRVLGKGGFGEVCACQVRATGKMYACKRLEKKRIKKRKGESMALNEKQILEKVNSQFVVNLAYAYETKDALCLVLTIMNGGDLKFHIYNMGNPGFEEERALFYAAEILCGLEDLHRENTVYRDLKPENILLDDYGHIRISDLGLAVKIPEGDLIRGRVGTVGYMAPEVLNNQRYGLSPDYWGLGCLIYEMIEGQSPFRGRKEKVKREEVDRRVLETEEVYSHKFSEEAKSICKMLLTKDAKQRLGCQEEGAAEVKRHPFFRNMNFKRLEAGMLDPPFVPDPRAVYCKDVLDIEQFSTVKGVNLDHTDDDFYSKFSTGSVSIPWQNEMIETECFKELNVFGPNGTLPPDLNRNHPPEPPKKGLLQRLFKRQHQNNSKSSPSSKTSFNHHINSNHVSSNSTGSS

For `CN(C(=O)CN1CCOCC1)c1ccc2sc3c(-c4cccc5c(=O)cc(N6CC7CCC(C6)O7)oc45)cccc3c2c1` [NU5455], the inhibition at 1 µM was -3.2%.
